Results published in patent US4401827A, “Novel acyl-derivatives of carnitine and process for their preparation” (Sigma-Tau, priority 1978, dated 1983).
Read-outs that look alike come from different tables or passages of the source.

Experiments:
[1] = acute toxicity (tolerance) i.p. in mice, Weil method; conditions: mouse, in vivo, ip, Weil method (N = 5, K = 4)
Excerpt: The tolerance of the Acyl-carnitines of the formula (I), as well as their salts administered by intraperitoneal route was investigated in mice using the Weil Method (1).
LD50, mg kg^-1 i.p. in mice,
of some acyl derivatives of formula (1).
Weil method (N = 5, K = 4)

rabbit hearts = experiment: cardiokinetic effect on isolated rabbit heart (Langendorff) after anoxia; conditions: equal concentrations in perfusion fluid, Student's t test versus controls
Protocol: The cardiokinetic effect on isolated heart was also investigated as follows. Rabbit hearts isolated by the Langendorff method were perfused with oxygenized ringer solution at 38.2° C. The isometric contractions, electrocardiogram and coronary flow were recorded using a "Battaglia-Rangoni" polygraph. By removing the oxygen from the perfusion fluid, metabolic damage was induced in the cardiac muscle, up to an 80% reduction in the cardiac contractile force.
Under these conditions of prolonged anoxia the aerobic glycolysis of the myocardium is slowed down, accompanied by the storage of acid catabolites due to both the accumulation of pyruvic acid and its conversion to lactic acid which cannot be utilized because of the depression of pyridine enzymes, such as LDH (lactodehydrogenase). This has repercussions on the anaerobic glycolysis affecting an ever increasing number of enzymes, accompanied by a progressive and increasingly critical exhaustion of the myocardium. Thus a whole series of cardiac muscle fatigue levels occurs which can be observed by the behavior of the examined parameters, namely the contractile force, coronary flow, heart rate and cardiac rhythm. As soon as the contractile force was reduced by 80%, the perfusion fluid was once again oxygenized either without adding other compounds (controls) or with the addition of the compounds under examination.
Table 2 below gives the percentage values of the contractile force of the heart, showing a positive inotropic effect, calculated after 10 minutes from the interruption of the anoxic period (myocardial restoration).
of some acyl derivatives of formula (I) on the contractile
force of rabbit's heart. (Details are given in the text)

rat's ventricle strip = experiment: antiarrhythmic effect, isolated rat ventricle strip test; conditions: for inhibition at 1 µM / activation at 1 µM: Rattus norvegicus, concentration 1·10^-6 M; for inhibition at 1 µM: decrease; for activation at 1 µM: increase; for antiarrhythmic properties (in words): isolated rat ventricle method
Excerpt: (2) M. Libonati and G. Segre, Archivio Italiano di Scienze Farmacologiche. Serie XIII, Vol. X, pag. 3, (1960)
effect of some acyl derivatives (concentration 1 · 10^-6
of the formula (1) on the rat's ventricle strip test.
% variation versus basal value.

[2] = tested on: arrhythmia induced by Aconitine in mice; experiment: arrhythmia induced by Aconitine in mice; type: in vivo; conditions: for antiarrhythmic activity (in words): Aconitine, mice; for change in vivo at 40 mg/kg / change in vivo at 150 mg/kg: Mus musculus, iv
Protocol: The antiarrhythmic effect of the compounds was also investigated in mice according to the P. W. Nwangwu, T. Holcslow procedure (4). Using Aconitine (5 mg/ml) as arrhythmogenic agent, the changes in the cardiac rhythm of the animals were recorded and the onset time of initial arrhythmia and/or of ventricular tachycardia were used as End point.
Antiarrhythmic agents display an increase in the latency time of initial ECG change.
(4) P. W. Nvangvu, T. L. Holcslow, Arch. Int. Pharmacodyn. 229, 219 (1977)
on the arrhythmia induced by Aconitine (5 γ/ml) in mice.
% increase of the time to onset of initial cardiac arrythmia

F.F.A. plasma levels = experiment: plasma free fatty acids in 17-hrs fasted rats; type: in vivo; conditions: single i.p. 500 mg kg^-1, 17-hrs fasted rats
Protocol: In 17-hrs fasted rats the F.F.A. (fatty-free acids) splasms levels were reduced by a single i.p. administration with 500 mg kg^-s of d,l dipropyl ACAR; l dipropyl ACAR (ACAR=acetylcarnitine); d,l exanoyl CAR (CAR=carnitine) and d,l pyruvyl CAR.
The decrease, compared with untreated animals, was -35%, -29%, -41% and -65% respectively.

[3] = tested on: plasma cholesterol, triglycerides and lipoproteins in rat; experiment: plasma cholesterol, triglycerides and lipoproteins in rat treated with olive oil; type: in vivo; conditions: for Lipoproteins, VLDL / Lipoproteins, HDL / Lipoproteins, LDL / cholesterol / triglycerides: olive oil 15 ml kg^-1 orally, compound ip, mean ± SEM, N = 8; for Lipoproteins, VLDL: oil control 15.84 ± 1.53; for Lipoproteins, HDL: oil control 24.18 ± 2.15; for Lipoproteins, LDL: oil control 57.38 ± 2.25; for cholesterol: oil control 88.33 ± 2.96; for triglycerides: oil control 213.66 ± 28.68
Protocol: In the rats the lipoproteic pattern altered due to an oil administration by gavage, was restored after a single treatment with d,l dipropyl ACAR; d,l ethyl exanoyl CAR; d,l 3 bromopropionyl CAR and d,l pyruvyl CAR.
The effect of some acyl derivatives of formula (I) on plasma cholesterol,
triglycerides and lipoproteins in rat
treated with olive oil, 15 ml kg^-1 orally. Mean Values ± SEM
Student "t" test .quadrature., Δ and indicate respectively a non
significant difference, a P ≤ 1% and 1%.

[4] = read-out: maximed frequency (- %), % variation versus basal value
[5] = read-out: whole excitability (- %), % variation versus basal value
[6] = read-out: refractory period (+ %), % variation versus basal value
[7] = read-out: rheobase (+ %), % variation versus basal value
[8] = read-out: latency time increase % of controls, arrhythmias
[9] = read-out: latency time increase % of controls, tachycardia

SMILES | LD50 [1] [mg/kg] | positive inotropic effect (in words) (rabbit hearts) | inhibition at 1 µM (rat's ventricle strip; [4]) [%] | inhibition at 1 µM (rat's ventricle strip; [5]) [%] | activation at 1 µM (rat's ventricle strip; [6]) [%] | activation at 1 µM (rat's ventricle strip; [7]) [%] | antiarrhythmic properties (in words) (rat's ventricle strip) | decrease of F.F.A. plasma levels compared with untreated animals (F.F.A. plasma levels) [%] | further results
CC(=O)C(=O)OC(CC(=O)[O-])C[N+](C)(C)C (racemic) [d,l pyruvyl CAR] | 3900 | greater positive inotropic effect than that of the other compounds under examination | 80.2 | 95.5 | 50.2 | 48.2 | most clear out antiarrhythmic properties | -65 | antiarrhythmic activity (in words) [2]: markedly exhibited; change in vivo at 40 mg/kg [2, 8]: 80%; change in vivo at 40 mg/kg [2, 9]: 60%; Lipoproteins, VLDL [3]: 10.15 ± 1.03%; Lipoproteins, HDL [3]: 33.26 ± 2.17%; Lipoproteins, LDL [3]: 50.15 ± 2.33%; cholesterol [3]: 70.26 ± 2.74 mg/100 ml; triglycerides [3]: 85.14 ± 7.22 mg/100 ml; increase of HDL and decrease of LDL and VLDL (in words) ([3]; rats, single treatment): most marked effect; lipoproteic pattern altered due to oil administration (in words) ([3]; rats, single treatment): restored; triglycerides and cholesterol plasma levels increased after oil (in words) ([3]; rats, single treatment): active against the triglycerides and cholesterol plasma levels
C[N+](C)(C)CC(CC(=O)[O-])OC(=O)C=Cc1ccccc1 (racemic) [d,l cinnamoyl CAR] | 1120 | greater positive inotropic effect than that of the other compounds under examination | 29.8 | 75.3 | 40.1 | 49.6 | – | – | change in vivo at 150 mg/kg [2, 8]: 20%; change in vivo at 150 mg/kg [2, 9]: 8%
CCCC(CCC)C(=O)OC(CC(=O)[O-])C[N+](C)(C)C (racemic) [d,l dipropyl ACAR] | 1700 | – | 23.2 | 50.6 | 34.3 | 24.2 | – | -35 | change in vivo at 150 mg/kg [2, 8]: 65%; change in vivo at 150 mg/kg [2, 9]: 55%; Lipoproteins, VLDL [3]: 13.26 ± 2.03%; Lipoproteins, HDL [3]: 28.13 ± 3.27%; Lipoproteins, LDL [3]: 50.12 ± 2.08%; cholesterol [3]: 75.15 ± 3.11 mg/100 ml; triglycerides [3]: 121.50 ± 11.13 mg/100 ml; lipoproteic pattern altered due to oil administration (in words) ([3]; rats, single treatment): restored
CCCC(CCC)C(=O)OC(CC(=O)[O-])C[N+](C)(C)C (stereo not shown) [dipropyl acetyl] | – | greater positive inotropic effect than that of the other compounds under examination | – | – | – | – | most clear out antiarrhythmic properties | – | antiarrhythmic activity (in words) [2]: markedly exhibited
CCCC(CCC)C(=O)O[C@H](CC(=O)[O-])C[N+](C)(C)C [l dipropyl ACAR] | 294 | – | 25.3 | 58.2 | 39.1 | 55.1 | – | -29 | change in vivo at 40 mg/kg [2, 8]: 60%; change in vivo at 40 mg/kg [2, 9]: 40%
CC(C)(C)C(=O)OC(CC(=O)[O-])C[N+](C)(C)C (stereo not shown) [pivaloyl] | – | greater positive inotropic effect than that of the other compounds under examination | – | – | – | – | most clear out antiarrhythmic properties | – | –
CCCCCC(=O)OC(CC(=O)[O-])C[N+](C)(C)C (stereo not shown) [d,l exanoyl CAR] | – | – | – | – | – | – | – | -41 | –
